Patent US20040082031A1, “Inflammatory inhibition factor fwa116” (priority 2001, published 2004)

System: expression of Fwa116 in human blood vessel endothelia cell
Assay: Effect of ox-LDL and soybean genistein on expression of Fwa116 (Northern blotting)
Type: cell-based
Details: cells treated with ox-LDL (200 μg/mL) and soybean genistein (100 μM) simultaneously, FIG. 3
Description: Low density lipoproteins (LDL) with a density of 1.019 to 1.063 obtained by density gradient centrifugation were oxidized with Cu^2+ for 24 hours, filtrated through a 0.22 μm filter membrane, and stored at 4[…] in a dark place. The value of TBARS was determined and the ox-LDL was separated by electrophoresis on agarose gel. More than 10 nmol/mg of TBARS value and the increase of electrophoretic mobility indicated successful oxidation.
The frozen tube containing human blood vessel endothelia cells was taken out from liquid-nitrogen, and put rapidly into a water bath at 37[…]]. After being melted completely, the cell suspension was inoculated to a 25 mL culture bottle containing 5 mL of RPMI or DMEM with 10% FES. Culture was carried out overnight in an incubator at 37[…] and 5% of CO2 concentration. The medium was replaced on the next day.
When Cells were grown to substantial confluency (with a covering percentage of around 80%), the original medium was discarded. After Cells were rinsed twice with 1× PBS (pH7.4), 0.125% trypsin was added, and the cells were digested for 5-10 minutes at 37 °C. […] The number of cells was counted, and the cell suspension was inoculated to a culture bottle containing 5 mL of RPMI or DMEM with 10% FES to a concentration of 100,000 cells/mL. […]

## O=c1c(-c2ccc(O)cc2)coc2cc(O)cc(O)c12 [soybean genistein, genistein]
  increase of expression of Fwa116: more than 10 fold
